Laboratory results reported in patent US20180368410A1, “MICROBIOCIDAL OXADIAZOLE DERIVATIVES” (SYNGENTA PARTICIPATIONS AG, priority 2015, published 2018).

Experiments:
Uromyces viciae-Fabael = assay: Uromyces viciae-fabae / field bean / leaf disc preventative (faba-bean rust); type: in vivo, Uromyces viciae-fabae on field bean; conditions: foliar, 288 h, 100 ppm in the applied formulation, inoculated two hours after application, assessed 12 days after application, vs untreated control leaf discs, read-out: disease control
Protocol: (§1) Leaf disks or leaf segments of various plant species are cut from plants grown in a greenhouse. The cut leaf disks or segments are placed in multiwell plates (24-well format) onto water agar. The leaf disks are sprayed with a test solution before (preventative) or after (curative) inoculation. Compounds to be tested are prepared as DMSO solutions (max. 10 mg/ml) which are diluted to the appropriate concentration with 0.025% Tween20 just before spraying. The inoculated leaf disks or segments are incubated under defined conditions (temperature, relative humidity, light, etc.) according to the respective test system. A single evaluation of disease level is carried out 3 to 14 days after inoculation, depending on the pathosystem. Percent disease control relative to the untreated check leaf disks or segments is then calculated.
Field bean leaf discs are placed on water agar in multiwell plates (96-well format) and 10 μl of the formulated test compound diluted in acetone and a spreader pipetted onto the leaf disc. Two hours after application leaf discs are inoculated by spraying a spore suspension on the lower leaf surface. The leaf discs are incubated in a climate cabinet at 22° C. with 18 hour day and 70% relative humidity. The activity of a compound is assessed as percent disease control compared to untreated when an appropriate level of disease damage appears in untreated check leaf disks (12 days after application).
The following compounds at 100 ppm in the applied formulation give at least 80% disease control in this test when compared to untreated control leaf discs under the same conditions, which show extensive disease development.

[1] = system: Puccinia recondita f. Sp. Tritici; assay: Puccinia recondita f. sp. tritici / wheat / leaf disc preventative (brown rust); type: in vivo, Puccinia recondita f. sp. tritici on wheat cv. Kanzler; conditions: foliar, 200 ppm in the applied formulation, inoculated 1 day after application, assessed 7 to 9 days after application, vs untreated control leaf disks, read-out: disease control
Method in brief: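 Wheat cv. Kanzler leaf segments on agar were sprayed with compound (DMSO stock diluted with 0.025% Tween20) 1 day before inoculation with spores. Segments were held at 19 °C, 75% rh, 12 h light/dark. Percent disease control versus untreated was scored 7–9 days after application.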

Phakopsora pachyrhizi = Phakopsora pachyrhizi / soybean / leaf disc preventative (Asian soybean rust); type: in vivo, Phakopsora pachyrhizi on soybean; conditions: foliar, 200 ppm in the applied formulation, inoculated one day after application, assessed 12 to 14 days after application, vs untreated control leaf disks, read-out: disease control
Protocol: as §1
Soybean leaf disks are placed on water agar in multiwell plates (24-well format) and sprayed with the formulated test compound diluted in water. One day after application leaf discs are inoculated by spraying a spore suspension on the lower leaf surface. After an incubation period in a climate cabinet of 24-36 hours in darkness at 20° C. and 75% rh leaf disc are kept at 20° C. with 12 h light/day and 75% rh. The activity of a compound is assessed as percent disease control compared to untreated when an appropriate level of disease damage appears in untreated check leaf disks (12 to 14 days after application).
(§2) The following compounds at 200 ppm in the applied formulation give at least 80% disease control in this test when compared to untreated control leaf disks under the same conditions, which show extensive disease development.

[2] = system: Puccinia recondita f. Sp. Triticil; assay: Puccinia recondita f. sp. tritici / wheat / leaf disc curative (brown rust); type: in vivo, Puccinia recondita f. sp. tritici on wheat cv. Kanzler; conditions: foliar, 200 ppm in the applied formulation, applied 1 day after inoculation, assessed 6 to 8 days after application, vs untreated control leaf disks, read-out: disease control
Protocol: as §1
Wheat leaf segments cv. Kanzler are placed on agar in multiwell plates (24-well format). The leaf segments are then inoculated with a spore suspension of the fungus. Plates were stored in darkness at 19° C. and 75% relative humidity. The formulated test compound diluted in water was applied 1 day after inoculation. The leaf segments were incubated at 19° C. and 75% relative humidity under a light regime of 12 hours light/12 hours darkness in a climate cabinet and the activity of a compound was assessed as percent disease control compared to untreated when an appropriate level of disease damage appears in untreated check leaf segments (6 to 8 days after application).
as §2

[3] = system: Glomerella Lacenarium (Colletotrichum lacenarium); assay: Glomerella lagenarium (Colletotrichum lagenarium) liquid culture / cucumber / preventative (anthracnose); type: cell-based; conditions: 20 ppm in the applied formulation, liquid culture in PDB, 24° C., inhibition of growth measured photometrically 3 to 4 days after application, vs untreated control, read-out: disease control
Method in brief: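 Conidia from cryogenic storage were mixed into potato dextrose broth and added to DMSO solutions of test compound in microtiter plates. Plates were incubated at 24° C. and growth inhibition read photometrically 3 to 4 days after application, as percent antifungal activity versus untreated check.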

O=C(NCc1ccc(-c2noc(C(F)(F)F)n2)cc1)c1ccc(Cl)cc1Cl [Compound 1.8, 2,4-dichloro-N-[[4-[5-(trifluoromethyl)-1,2,4-oxadiazol-3-yl]phenyl]methyl]benzamide]
≥ 80%: pest or weed control at 100 ppm (Uromyces viciae-Fabael)

O=C(NCc1ccc(-c2noc(C(F)(F)F)n2)cc1)c1cccc(C(F)(F)F)c1 [Compound 1.9, 3-(trifluoromethyl)-N-[[4-[5-(trifluoromethyl)-1,2,4-oxadiazol-3-yl]phenyl]methyl]benzamide]
≥ 80%: pest or weed control at 100 ppm (Uromyces viciae-Fabael)

O=C(CCc1ccc(Cl)cc1)NCc1ccc(-c2noc(C(F)(F)F)n2)cc1 [Compound 1.11, 3-(4-chlorophenyl)-N-[[4-[5-(trifluoromethyl)-1,2,4-oxadiazol-3-yl]phenyl]methyl] propanamide]
≥ 80%: pest or weed control at 100 ppm (Uromyces viciae-Fabael)

O=C(Cc1ccccc1Cl)NCc1ccc(-c2noc(C(F)(F)F)n2)cc1 [Compound 1.12, 2-(2-chlorophenyl)-N-[[4-[5-(trifluoromethyl)-1,2,4-oxadiazol-3-yl]phenyl]methyl]acetamide]
≥ 80%: pest or weed control at 100 ppm (Uromyces viciae-Fabael) | pest or weed control at 200 ppm [1]

CCC1(C(=O)NCc2ccc(-c3noc(C(F)(F)F)n3)cc2)C(C)C1(Cl)Cl (stereo not drawn) [Compound 1.31, 2,2-dichloro-1-ethyl-3-methyl-N-[[4-[5-(trifluoromethyl)-1,2,4-oxadiazol-3-yl]phenyl]methyl] cyclopropanecarboxamide]
≥ 80%: pest or weed control at 100 ppm (Uromyces viciae-Fabael)

CCOc1ccc(C2(C(=O)NCc3ccc(-c4noc(C(F)(F)F)n4)cc3)CC2(F)F)cc1 (stereo not drawn) [Compound 1.35, 1-(4-ethoxyphenyl)-2,2-difluoro-N-[[4-[5-(trifluoromethyl)-1,2,4-oxadiazol-3-yl]phenyl]methyl] cyclopropanecarboxamide]
≥ 80%: pest or weed control at 100 ppm (Uromyces viciae-Fabael)

CC1(C(=O)NCc2ccc(-c3noc(C(F)(F)F)n3)c(F)c2)COC1 [Compound 1.69, N-[[3-fluoro-4-[5-(trifluoromethyl)-1,2,4-oxadiazol-3-yl]phenyl]methyl]-3-methyl-oxetane-3-carboxamide]
≥ 80%: pest or weed control at 200 ppm (Phakopsora pachyrhizi) | pest or weed control at 200 ppm [2] | inhibition of growth at 20 ppm [3] | pest or weed control at 200 ppm [1]

O=C(NCc1ccc(-c2noc(C(F)(F)F)n2)c(F)c1F)C1CC1(F)F (stereo not drawn) [Compound 1.72, N-[[2,3-difluoro-4-[5-(trifluoromethyl)-1,2,4-oxadiazol-3-yl]phenyl]methyl]-2,2-difluoro-cyclopropanecarboxamide]
≥ 80%: pest or weed control at 200 ppm (Phakopsora pachyrhizi) | pest or weed control at 200 ppm [2] | inhibition of growth at 20 ppm [3] | pest or weed control at 200 ppm [1]

O=C(CC1CC1)NCc1ccc(-c2noc(C(F)(F)F)n2)c(F)c1F [Compound 1.73, 2-cyclopropyl-N-[[2,3-difluoro-4-[5-(trifluoromethyl)-1,2,4-oxadiazol-3-yl]phenyl]methyl]acetamide]
≥ 80%: pest or weed control at 200 ppm (Phakopsora pachyrhizi) | pest or weed control at 200 ppm [2] | inhibition of growth at 20 ppm [3] | pest or weed control at 200 ppm [1]

O=C(NCc1ccc(-c2noc(C(F)(F)F)n2)c(F)c1F)C1CCC1 [Compound 1.75, N-[[2,3-difluoro-4-[5-(trifluoromethyl)-1,2,4-oxadiazol-3-yl]phenyl]methyl] cyclobutanecarboxamide]
≥ 80%: pest or weed control at 200 ppm (Phakopsora pachyrhizi) | pest or weed control at 200 ppm [2] | inhibition of growth at 20 ppm [3] | pest or weed control at 200 ppm [1]

CC1(C(=O)NCc2ccc(-c3noc(C(F)(F)F)n3)c(F)c2F)CC1 [Compound 1.78, N-[[2,3-difluoro-4-[5-(trifluoromethyl)-1,2,4-oxadiazol-3-yl]phenyl]methyl]-1-methyl-cyclopropanecarboxamide]
≥ 80%: pest or weed control at 200 ppm (Phakopsora pachyrhizi) | pest or weed control at 200 ppm [2] | inhibition of growth at 20 ppm [3] | pest or weed control at 200 ppm [1]

O=C(NCc1ccc(-c2noc(C(F)(F)F)n2)c(F)c1)C1CC1(F)F (stereo not drawn) [Compound 1.91, 2,2-difluoro-N-[[3-fluoro-4-[5-(trifluoromethyl)-1,2,4-oxadiazol-3-yl]phenyl]methyl] cyclopropanecarboxamide]
≥ 80%: pest or weed control at 200 ppm (Phakopsora pachyrhizi) | pest or weed control at 200 ppm [2] | inhibition of growth at 20 ppm [3] | pest or weed control at 200 ppm [1]

O=C(CC1CC1)NCc1ccc(-c2noc(C(F)(F)F)n2)c(F)c1 [Compound 1.92, 2-cyclopropyl-N-[[3-fluoro-4-[5-(trifluoromethyl)-1,2,4-oxadiazol-3-yl]phenyl]methyl]acetamide]
≥ 80%: pest or weed control at 200 ppm (Phakopsora pachyrhizi) | pest or weed control at 200 ppm [2] | inhibition of growth at 20 ppm [3] | pest or weed control at 200 ppm [1]

O=C(NCc1ccc(-c2noc(C(F)(F)F)n2)c(F)c1)C1CCC1 [Compound 1.93, N-[[3-fluoro-4-[5-(trifluoromethyl)-1,2,4-oxadiazol-3-yl]phenyl]methyl] cyclobutanecarboxamide]
≥ 80%: pest or weed control at 200 ppm (Phakopsora pachyrhizi) | pest or weed control at 200 ppm [2] | inhibition of growth at 20 ppm [3] | pest or weed control at 200 ppm [1]

O=C(NCCc1ccc(-c2noc(C(F)(F)F)n2)cc1)C1CC1(F)F (stereo not drawn) [Compound 1.98, 2,2-difluoro-N-[2-[4-[5-(trifluoromethyl)-1,2,4-oxadiazol-3-yl]phenyl]ethyl] cyclopropanecarboxamide]
≥ 80%: pest or weed control at 200 ppm (Phakopsora pachyrhizi) | pest or weed control at 200 ppm [2] | inhibition of growth at 20 ppm [3] | pest or weed control at 200 ppm [1]

O=C(NCCc1ccc(-c2noc(C(F)(F)F)n2)cc1)C1CCOC1 (stereo not drawn) [Compound 1.100, N-[2-[4-[5-(trifluoromethyl)-1,2,4-oxadiazol-3-yl]phenyl]ethyl] tetrahydrofuran-3-carboxamide]
≥ 80%: pest or weed control at 200 ppm (Phakopsora pachyrhizi) | pest or weed control at 200 ppm [2] | inhibition of growth at 20 ppm [3] | pest or weed control at 200 ppm [1]

O=C(NCCc1ccc(-c2noc(C(F)(F)F)n2)cc1)C1CCC1 [Compound 1.101, N-[2-[4-[5-(trifluoromethyl)-1,2,4-oxadiazol-3-yl]phenyl]ethyl] cyclobutanecarboxamide]
≥ 80%: pest or weed control at 200 ppm (Phakopsora pachyrhizi) | pest or weed control at 200 ppm [2] | inhibition of growth at 20 ppm [3] | pest or weed control at 200 ppm [1]

CC1CC1C(=O)NCCc1ccc(-c2noc(C(F)(F)F)n2)cc1 (stereo not drawn) [Compound 1.102, 2-methyl-N-[2-[4-[5-(trifluoromethyl)-1,2,4-oxadiazol-3-yl]phenyl]ethyl] cyclopropanecarboxamide]
≥ 80%: pest or weed control at 200 ppm (Phakopsora pachyrhizi) | pest or weed control at 200 ppm [2] | inhibition of growth at 20 ppm [3] | pest or weed control at 200 ppm [1]

CC1(C(=O)NCCc2ccc(-c3noc(C(F)(F)F)n3)cc2)COC1 [Compound 1.104, 3-methyl-N-[2-[4-[5-(trifluoromethyl)-1,2,4-oxadiazol-3-yl]phenyl]ethyl]oxetane-3-carboxamide]
≥ 80%: pest or weed control at 200 ppm (Phakopsora pachyrhizi) | pest or weed control at 200 ppm [2] | inhibition of growth at 20 ppm [3] | pest or weed control at 200 ppm [1]

O=C(CC1CC1)NCCc1ccc(-c2noc(C(F)(F)F)n2)cc1 [Compound 1.105, 2-cyclopropyl-N-[2-[4-[5-(trifluoromethyl)-1,2,4-oxadiazol-3-yl]phenyl]ethyl]acetamide]
≥ 80%: pest or weed control at 200 ppm (Phakopsora pachyrhizi) | pest or weed control at 200 ppm [2] | inhibition of growth at 20 ppm [3] | pest or weed control at 200 ppm [1]
